What follows are compounds tested against wild-type human cardiac sodium channel, hNav1.5 (late sodium current) (Homo sapiens, UniProt Q14524) (assay: Late INa screening assay (PatchXpress whole cell patch clamp)). Conditions: 1 μM test compound; HEK293 cells expressing hNav1.5; late INa generated with 10 μM Tefluthrin (some experiments 50 nM ATX II).
Assay type: cell-based
Procedure: The late sodium current (Late INa) and peak sodium current (Peak INa) assays were performed on an automated electrophysiology platform, PatchXpress 7000A (MDS Analytical Technologies, Sunnyvale, Calif.), which uses the whole cell patch clamp technique to measure currents through the cell membrane of up to 16 cells at a time. The assay used an HEK293 (human embryonic kidney) cell line heterologously expressing the wild-type human cardiac sodium channel, hNav1.5, purchased from Millipore (Billerica, Mass.). No beta subunits were coexpressed with the Na channel alpha subunit. Cells were maintained with standard tissue culture procedures and stable channel expression was maintained with 400 μg/ml Geneticin in the culture medium. Cells isolated for use on PatchXpress were incubated for 5 minutes in Versene 1× and then for 2 minutes in 0.0125% Trypsin-EDTA (both at 37° C.) to ensure that 80-90% of the cells are single and not part of a cell cluster. Experiments were carried out at 24-27° C.
For both the Late INa and Peak INa assays, series resistance compensation was set to 50% and whole-cell compensation was performed automatically. Currents were low-pass filtered at 10 kHz and digitized at 31.25 kHz. Currents through open sodium channels were automatically recorded and stored in the DataXpress2 database (MDS Analytical Technologies, Sunnyvale, Calif.). Analysis was performed using DataXpress2 analysis software and data are compiled in Excel.
Compound stocks were routinely made in glass vials to 10 mM in dimethyl sulfoxide (DMSO). In some cases, when compounds were not soluble in DMSO, they were made in 100% ethanol. Stocks were sonicated as necessary. The extracellular solution for screening Late INa was composed of: 140 mM NaCl, 4 mM KCl, 1.8 mM CaCl2, 0.75 mM MgCl2, and 5 mM HEPES with pH adjusted to 7.4 using NaOH. The extracellular solution for screening Peak INa was composed of: 20 mM NaCl, 120 mM N-methyl-D glucamine, 4 mM KCl, 1.8 mM CaCl2, 0.75 mM MgCl2, and 5 mM HEPES with pH adjusted to 7.4 using HCl. The intracellular solution used to perfuse the inside of the cells for both the Late INa and Peak INa assays contains: 120 mM CsF, 20 mM CsCl, 5 mM EGTA, 5 mM HEPES and pH adjusted to 7.4 with CsOH. Compounds were diluted in extracellular solution to 10 μM in glass vials and then transferred to glass well plates before robotic addition to the cells. The 0Na extracellular solution used at the end of each experiment for the Late INa and Peak INa assays to measure baseline current contained: 140 mM N-methyl-D-glucamine; 4 mM KCl; 1.8 mM CaCl2; 0.75 mM MgCl2; 5 mM HEPES and pH was adjusted to 7.4 with HCl.
For the Late INa assay, sodium channels were activated every 10 seconds (0.1 Hz) by depolarizing the cell membrane to −20 mV for 250 milliseconds (ms) from a holding potential of −120 mV. In response to a −20 mV voltage step, typical Nav1.5 sodium currents activated rapidly to a peak negative current and then inactivated nearly completely within 3-4 ms.
All compounds were tested to determine their activity in blocking the late sodium current. Late INa current is generated by adding 10 μM Tefluthrin (pyrethroid) to the extracellular solution while recording Na currents. For some experiments, 50 nM ATX II (sea anemone toxin), another late INa activator, was used to generate the late component. Both activators generate late components that are large enough that block of the late component by compounds can be measured easily. For the purposes of the screening, late INa is defined as the mean current between 225 ms and 250 ms after stepping to −20 mV to activate Na channels. After establishing the whole cell recording configuration, late INa activators were added to each well 4 times over a 16-17 minute period so that the late component of the Na current reached a stable value. Compounds were then added (typically at 10 μM), in the presence of late INa activator, with 3 additions over the course of 7 or 8 minutes. […]

wild-type human cardiac sodium channel, hNav1.5 (late sodium current), sequence (Q14524 whole entry): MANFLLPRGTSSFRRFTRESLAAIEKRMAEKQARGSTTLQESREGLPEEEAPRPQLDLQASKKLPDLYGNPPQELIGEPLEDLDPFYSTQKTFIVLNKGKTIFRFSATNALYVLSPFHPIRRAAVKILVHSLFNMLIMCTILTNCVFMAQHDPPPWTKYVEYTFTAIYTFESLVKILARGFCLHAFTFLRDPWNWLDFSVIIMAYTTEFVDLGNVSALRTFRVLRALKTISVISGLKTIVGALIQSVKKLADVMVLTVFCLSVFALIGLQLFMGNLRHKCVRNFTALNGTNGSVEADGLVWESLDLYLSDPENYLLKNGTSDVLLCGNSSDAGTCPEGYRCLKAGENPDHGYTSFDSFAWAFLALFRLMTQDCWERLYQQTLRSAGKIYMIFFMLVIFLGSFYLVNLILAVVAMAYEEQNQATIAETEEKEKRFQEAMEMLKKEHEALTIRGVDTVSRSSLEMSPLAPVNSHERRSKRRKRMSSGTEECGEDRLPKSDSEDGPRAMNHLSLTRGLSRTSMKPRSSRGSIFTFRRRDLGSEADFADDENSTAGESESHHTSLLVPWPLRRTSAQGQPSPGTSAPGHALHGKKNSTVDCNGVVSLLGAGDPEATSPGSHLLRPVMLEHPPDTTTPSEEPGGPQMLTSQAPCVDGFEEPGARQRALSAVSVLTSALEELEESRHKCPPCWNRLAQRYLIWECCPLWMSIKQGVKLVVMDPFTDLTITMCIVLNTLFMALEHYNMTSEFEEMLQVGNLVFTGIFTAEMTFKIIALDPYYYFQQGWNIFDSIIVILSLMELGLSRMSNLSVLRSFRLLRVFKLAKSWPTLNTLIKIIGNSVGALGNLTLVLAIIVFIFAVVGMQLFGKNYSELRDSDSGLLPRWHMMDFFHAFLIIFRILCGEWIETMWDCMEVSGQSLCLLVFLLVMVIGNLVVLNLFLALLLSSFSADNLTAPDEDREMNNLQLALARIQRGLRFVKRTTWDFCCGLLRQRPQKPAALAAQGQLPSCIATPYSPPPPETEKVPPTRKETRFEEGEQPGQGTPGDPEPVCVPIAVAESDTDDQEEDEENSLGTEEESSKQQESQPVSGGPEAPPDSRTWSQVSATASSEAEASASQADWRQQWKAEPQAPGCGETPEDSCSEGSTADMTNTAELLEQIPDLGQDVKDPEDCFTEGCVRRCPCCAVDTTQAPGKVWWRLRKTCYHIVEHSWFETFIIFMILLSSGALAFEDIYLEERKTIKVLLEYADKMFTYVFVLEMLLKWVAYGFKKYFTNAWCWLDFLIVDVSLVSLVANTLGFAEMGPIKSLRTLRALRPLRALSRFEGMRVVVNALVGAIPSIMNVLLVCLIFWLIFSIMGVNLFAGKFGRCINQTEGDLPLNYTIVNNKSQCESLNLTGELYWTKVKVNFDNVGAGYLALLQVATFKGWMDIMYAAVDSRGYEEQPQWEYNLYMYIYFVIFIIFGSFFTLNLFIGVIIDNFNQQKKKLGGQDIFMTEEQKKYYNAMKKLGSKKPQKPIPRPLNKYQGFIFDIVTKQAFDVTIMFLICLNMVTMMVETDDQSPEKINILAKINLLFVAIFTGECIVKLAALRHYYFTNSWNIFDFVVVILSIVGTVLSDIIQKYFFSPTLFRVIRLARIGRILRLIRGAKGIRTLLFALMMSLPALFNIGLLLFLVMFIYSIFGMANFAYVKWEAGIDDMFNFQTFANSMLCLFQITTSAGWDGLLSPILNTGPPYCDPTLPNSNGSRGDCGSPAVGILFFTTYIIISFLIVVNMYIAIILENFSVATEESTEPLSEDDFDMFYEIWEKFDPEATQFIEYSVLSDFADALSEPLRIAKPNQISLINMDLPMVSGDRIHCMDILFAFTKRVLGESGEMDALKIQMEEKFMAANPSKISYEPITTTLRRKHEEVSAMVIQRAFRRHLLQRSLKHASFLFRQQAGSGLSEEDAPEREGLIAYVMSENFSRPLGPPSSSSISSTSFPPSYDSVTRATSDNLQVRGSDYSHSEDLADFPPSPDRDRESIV

SMILES | Late INa % blk (1 μM test cmpd) [%]
CC(C)(C)OC(=O)CN1C(=O)CCc2cc(-c3ccc(F)cc3F)ccc21 [Compound 30, tert-butyl [6-(2,4-difluorophenyl)-2-oxo-3,4-dihydroquinolin-1(2H)-yl]acetate] | 47.9
CC(C)(C)OC(=O)CN1C(=O)CCc2cc(-c3ccc(F)cc3)ccc21 [Compound 33, tert-butyl [6-(4-fluorophenyl)-2-oxo-3,4-dihydroquinolin-1(2H)-yl]acetate] | 38.1

Same assay, conditions: 10 μM test compound; HEK293 cells expressing hNav1.5; late INa generated with 10 μM Tefluthrin (some experiments 50 nM ATX II)

SMILES | Late INa % blk (10 μM test cmpd) [%]
CC(C)(C)OC(=O)CN1C(=O)CCc2cc(-c3ccc(C(F)(F)F)cc3)ccc21 [Compound 45, tert-butyl {2-oxo-6-[4-(trifluoromethyl)phenyl]-3,4-dihydroquinolin-1(2H)-yl}acetate] | 64

Same assay, conditions: HEK293, 10 μM test compound; HEK293 cells expressing hNav1.5; late INa generated with 10 μM Tefluthrin (some experiments 50 nM ATX II); read-out: Late INa % blk (10 μM test cmpd)

SMILES | inhibition at 10 µM [%]
N#Cc1cccc(-c2ccc3c(c2)CCC(=O)N3)c1 [Compound 41, 3-(2-oxo-1,2,3,4-tetrahydroquinolin-6-yl)benzonitrile] | 12
O=C(O)CN1C(=O)CCc2cc(-c3ccc(C(F)(F)F)c(F)c3)ccc21 [Compound 74, 2-(6-(3-fluoro-4-(trifluoromethyl)phenyl)-2-oxo-3,4-dihydroquinolin-1(2H)-yl)acetic acid] | 20
O=C1CCc2cc(-c3ccc(Oc4ccccc4)cc3)ccc2N1 [Compound 38, 6-(4-phenoxyphenyl)-3,4-dihydroquinolin-2(1H)-one] | 53
O=C1CCc2cc(-c3ccc(C(F)(F)F)c(F)c3)ccc2N1 [Compound 19, 6-(3-fluoro-4-(trifluoromethyl)phenyl)-3,4-dihydroquinolin-2(1H)-one] | 31
COc1cc2c(cc1-c1ccc(Cl)cc1)CCC(=O)N2CC(=O)O [Compound 80, 2-(6-(4-chlorophenyl)-7-methoxy-2-oxo-3,4-dihydroquinolin-1(2H)-yl)acetic acid] | 17
O=C1CCc2cc(-c3cccc(C(F)(F)F)c3)ccc2N1 [Compound 13, 6-[3-(trifluoromethyl)phenyl]-3,4-dihydroquinolin-2(1H)-one] | 70
CCOC(=O)c1cccc(CN2C(=O)CCc3cc(-c4ccc(C(F)(F)F)cc4)ccc32)c1 [Compound 91, ethyl 3-((2-oxo-6-(4-(trifluoromethyl)phenyl)-3,4-dihydroquinolin-1(2H)-yl)methyl)benzoate] | 31
N#Cc1cc(-c2ccc3c(c2)CCC(=O)N3)ccc1F [Compound 12, 2-fluoro-5-(2-oxo-1,2,3,4-tetrahydroquinolin-6-yl)benzonitrile] | 27
O=C1CCc2cc(-c3ccc(OC(F)(F)F)cc3)ccc2N1Cc1cccnc1 [Compound 37, 1-(pyridin-3-ylmethyl)-6-[4-(trifluoromethoxy)phenyl]-3,4-dihydroquinolin-2(1H)-one] | 19
CCOC(=O)CN1C(=O)CCc2cc(-c3ccc(F)cc3F)ccc21 [Compound 22, ethyl [6-(2,4-difluorophenyl)-2-oxo-3,4-dihydroquinolin-1(2H)-yl]acetate] | 67
NC(=O)CN1C(=O)CCc2cc(-c3ccc(OC(F)(F)F)cc3)ccc21 [Compound 31, 2-{2-oxo-6-[4-(trifluoromethoxy)phenyl]-3,4-dihydroquinolin-1(2H)-yl}acetamide] | 26
CCOC(=O)CN1C(=O)CCc2cc(-c3ccc(F)c(F)c3)ccc21 [Compound 23, ethyl [6-(3,4-difluorophenyl)-2-oxo-3,4-dihydroquinolin-1(2H)-yl]acetate] | 33
O=C(O)c1ccc(CN2C(=O)CCc3cc(-c4ccc(C(F)(F)F)cc4)ccc32)cc1 [Compound 86, 4-((2-oxo-6-(4-(trifluoromethyl)phenyl)-3,4-dihydroquinolin-1(2H)-yl)methyl)benzoic acid] | 13
CCOC(=O)CN1C(=O)CCc2cc(-c3ccc(C(F)(F)F)cc3)ccc21 [Compound 54, ethyl {2-oxo-6-[4-(trifluoromethyl)phenyl]-3,4-dihydroquinolin-1(2H)-yl}acetate] | 13
O=C1CCc2cc(-c3ccccc3F)ccc2N1 [Compound 7, 6-(2-fluorophenyl)-3,4-dihydroquinolin-2(1H)-one] | 52
CC(C)(C)OC(=O)CN1C(=O)CCc2cc(-c3ccc(Cl)cc3)ccc21 [Compound 40, tert-butyl [6-(4-chlorophenyl)-2-oxo-3,4-dihydroquinolin-1(2H)-yl]acetate] | 64
COc1ccccc1OCC(O)CN1C(=O)CCc2cc(-c3ccc(F)cc3F)ccc21 (stereo not drawn) [Compound 88, 6-(2,4-difluorophenyl)-1-(2-hydroxy-3-(2-methoxyphenoxy)propyl)-3,4-dihydroquinolin-2(1H)-one] | 40
CC(C)(C)OC(=O)CN1C(=O)CCc2cc(-c3ccc(Oc4ccccc4)cc3)ccc21 [Compound 66, tert-butyl [2-oxo-6-(4-phenoxyphenyl)-3,4-dihydroquinolin-1(2H)-yl]acetate] | 27
CC(C)(C)OC(=O)CN1C(=O)CCc2cc(-c3ccc(F)cc3F)ccc21 [Compound 30, tert-butyl [6-(2,4-difluorophenyl)-2-oxo-3,4-dihydroquinolin-1(2H)-yl]acetate] | 86
O=C1CCc2cc(-c3ccc(F)cc3)ccc2N1 [Compound 3, 6-(4-fluorophenyl)-3,4-dihydroquinolin-2(1H)-one] | 29
O=C1CCc2cc(-c3ccc(F)cc3F)ccc2N1CC(F)(F)F [Compound 28, 6-(2,4-difluorophenyl)-1-(2,2,2-trifluoroethyl)-3,4-dihydroquinolin-2(1H)-one] | 18
COc1c(-c2ccc(Cl)cc2)cc2c(c1Br)NC(=O)CC2 [Compound 78, 8-bromo-6-(4-chlorophenyl)-7-methoxy-3,4-dihydroquinolin-2(1H)-one] | 34
NC(=O)c1cccc(-c2ccc3c(c2)CCC(=O)N3)c1 [Compound 6, 3-(2-oxo-1,2,3,4-tetrahydroquinolin-6-yl)benzamide] | 23
COc1cc2c(cc1-c1ccc(C(F)(F)F)c(F)c1)CCC(=O)N2 [Compound 82, 6-(3-fluoro-4-(trifluoromethyl)phenyl)-7-methoxy-3,4-dihydroquinolin-2(1H)-one] | 54
N#CCN1C(=O)CCc2cc(-c3ccc(C(F)(F)F)cc3)ccc21 [Compound 90, 2-(2-oxo-6-(4-(trifluoromethyl)phenyl)-3,4-dihydroquinolin-1(2H)-yl)acetonitrile] | 22
NC(=O)CN1C(=O)CCc2cc(-c3ccc(F)cc3F)ccc21 [Compound 55, 2-[6-(2,4-difluorophenyl)-2-oxo-3,4-dihydroquinolin-1(2H)-yl]acetamide] | 14
O=C(CN1C(=O)CCc2cc(-c3ccc(C(F)(F)F)cc3)ccc21)N1CCOCC1 [Compound 32, 1-[2-(morpholin-4-yl)-2-oxoethyl]-6-[4-(trifluoromethyl)phenyl]-3,4-dihydroquinolin-2(1H)-one] | 27
CC(C)(C)OC(=O)CN1C(=O)CCc2cc(-c3ccc(F)cc3)ccc21 [Compound 33, tert-butyl [6-(4-fluorophenyl)-2-oxo-3,4-dihydroquinolin-1(2H)-yl]acetate] | 77
O=C(O)CN1C(=O)CCc2cc(-c3ccc(Cl)cc3)ccc21 [Compound 68, [6-(4-chlorophenyl)-2-oxo-3,4-dihydroquinolin-1(2H)-yl]acetic acid] | 23
COc1cc2c(cc1-c1ccc(Cl)cc1)CCC(=O)N2 [Compound 77, 6-(4-chlorophenyl)-7-methoxy-3,4-dihydroquinolin-2(1H)-one] | 72

From US8664379B2, “Fused heterocyclic compounds as ion channel modulators” (Gilead Sciences, Inc., priority 2008, dated 2014)
